Measured values: patent US20240294531A1, “COVALENT HETEROCYCLES AND USES THEREOF” (Kumquat Biosciences Inc., priority 2022, published 2024)

How the values were obtained:
[1] = target: BTK wildtype protein (Homo sapiens (Human), UniProt Q06187); test: BTK wildtype HTRF displacement assay; assay type: binding; details: 1-hour incubation; read-out: BTK (wt) IC50
Experimental: (§1) The ability of a compound to bind BTK wildtype or BTK C481S proteins was measured using an HTRF displacement assay. The assay measures the ability of a compound to displace a tracer ligand bound to the active site of BTK wildtype or BTK C481 S proteins.
(§2) Test compounds were prepared as 10 mM stock solutions in DMSO (Fisher cat #BP231-100). Compounds to be assayed were dispensed using an Echo 650 acoustic dispenser (Beckman Coulter) on a 384 well plate in 6 doses applying four-fold dilutions from the highest concentration of 5 μM. N-terminal GST-tagged recombinant full-length BTK wildtype protein and BTK C481 S protein 2-659 were purchased from Carna Biosciences, Inc (Kobe, Japan). BTK wildtype or BTK C481S protein was separately incubated with compound in assay buffer containing kinase tracer 239 (Thermo Fisher) and Mab anti GST-Th (PerkinElmer). After a 1-hour incubation at room temperature, the HTRF signal was measured using SPARK plate reader (Tecan) using the TR fluorescence mode. The HTRF ratio is calculated for DMSO, no protein control and compound samples using the following equation: HTRF ratio=Emmision665/Emmision620×10^4. The signal for the no protein control samples was used to subtract background noise from the DMSO and compound samples. Background subtracted HTRF ratios are used to calculate the percent inhibition, where DMSO controls are set to 0 percent inhibition. The percent inhibition is plotted as a function of compound concentration and IC50 values were calculated from a four-parameter logistic fit in Prism v9.4 (GraphPad), where the bottom and top are constrained to 0 and 100, respectively.

[2] = target: BTK C481S protein (Homo sapiens (Human), UniProt Q06187, C481S); test: BTK C481S HTRF displacement assay; assay type: binding; details: 1-hour incubation
Experimental: as §1, §2
The same assay was used to measure the activity of selected compounds of the formula TBM-L-hydrogen. Using the IC50 value observed for a given reversible test compound, the KI of the test compound can be assessed using the formula KI=IC50/(1+([Tracer]/Kd)), wherein the tracer concentration in the assay [Tracer] is 50 nM and the tracer Kd for BTK C481S is 54 nM.

Chain of BTK wildtype protein (Q06187 2-659): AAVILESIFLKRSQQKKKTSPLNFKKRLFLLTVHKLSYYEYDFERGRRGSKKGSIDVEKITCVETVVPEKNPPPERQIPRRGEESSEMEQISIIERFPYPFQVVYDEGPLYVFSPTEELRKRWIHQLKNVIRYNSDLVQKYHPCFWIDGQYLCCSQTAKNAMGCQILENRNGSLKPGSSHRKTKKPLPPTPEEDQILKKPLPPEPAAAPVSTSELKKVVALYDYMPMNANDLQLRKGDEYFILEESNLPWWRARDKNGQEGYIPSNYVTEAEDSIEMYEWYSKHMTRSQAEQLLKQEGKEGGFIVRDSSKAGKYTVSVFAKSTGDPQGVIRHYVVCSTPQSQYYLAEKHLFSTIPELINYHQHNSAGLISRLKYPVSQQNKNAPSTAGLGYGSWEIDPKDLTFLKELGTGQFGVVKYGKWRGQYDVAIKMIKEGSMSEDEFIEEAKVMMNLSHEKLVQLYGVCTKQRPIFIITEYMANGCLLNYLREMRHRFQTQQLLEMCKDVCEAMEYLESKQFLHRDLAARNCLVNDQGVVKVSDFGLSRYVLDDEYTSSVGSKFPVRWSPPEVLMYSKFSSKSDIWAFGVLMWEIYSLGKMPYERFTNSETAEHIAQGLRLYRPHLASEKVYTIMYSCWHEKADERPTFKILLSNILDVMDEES
Chain of BTK C481S protein (Q06187 2-659 C481S): as the sequence (Q06187 2-659) above, with C480S counted along it

SMILES	IC50 [1]	IC50 [2]
COc1ccc(F)cc1C(=O)NCc1ccc(-c2nn(C[C@@H]3CCN3C(=O)n3cncn3)c3ncnc(N)c23)cc1 [Compound 103, (S)-N-(4-(1-((1-(1H-1,2,4-triazole-1-carbonyl)azetidin-2-yl)methyl)-4-amino-1H-pyrazolo[3,4-d]pyrimidin-3-yl)benzyl)-5-fluoro-2-methoxybenzamide]	≤ 1000 nM	≤ 1000 nM
COc1ccc(F)cc1C(=O)NCc1ccc(-c2nn(C[C@H]3CCCCN3C(=O)n3cncn3)c3ncnc(N)c23)cc1 [Compound 104, (R)-N-(4-(1-((1-(1H-1,2,4-triazole-1-carbonyl)piperidin-2-yl)methyl)-4-amino-1H-pyrazolo[3,4-d]pyrimidin-3-yl)benzyl)-5-fluoro-2-methoxybenzamide]	> 1000 nM	≤ 1000 nM
Cc1[nH]c2c(C(N)=O)cc(F)c(N3CCC4(CCN4C(=O)n4cncn4)C3)c2c1C (centres unmarked) [Compound 105, 4-(1-(1H-1,2,4-triazole-1-carbonyl)-1,6-diazaspiro[3.4]octan-6-yl)-5-fluoro-2,3-dimethyl-1H-indole-7-carboxamide]	≤ 1000 nM	≤ 1000 nM
CC1CN(Cc2ccc(C(F)(F)F)cc2N2CCCC2)CCN1C(=O)n1cncn1 (centres unmarked) [Compound 106, (2-methyl-4-(2-(pyrrolidin-1-yl)-4-(trifluoromethyl)benzyl)piperazin-1-yl)(1H-1,2,4-triazol-1-yl)methanone]	> 1000 nM	> 1000 nM
COc1nn(C)cc1Nc1nc(N2CCC3(CCN3C(=O)n3cncn3)C2)nc2c1ncn2C (centres unmarked) [Compound 107, (6-(6-((3-methoxy-1-methyl-1H-pyrazol-4-yl)amino)-9-methyl-9H-purin-2-yl)-1,6-diazaspiro[3.4]octan-1-yl)(1H-1,2,4-triazol-1-yl)methanone]	> 1000 nM	> 1000 nM
COc1ccc(F)cc1C(=O)NCc1ccc(-c2nn(C[C@H]3CCN3C(=O)n3cncn3)c3ncnc(N)c23)cc1 [Compound 108, (R)-N-(4-(1-((1-(1H-1,2,4-triazole-1-carbonyl)azetidin-2-yl)methyl)-4-amino-1H-pyrazolo[3,4-d]pyrimidin-3-yl)benzyl)-5-fluoro-2-methoxybenzamide]	≤ 1000 nM	≤ 1000 nM
CCN(C(=O)n1cncn1)C1CCCC(n2nc(-c3ccc(Oc4ccccc4)cc3)c3c(N)ncnc32)C1 (centres unmarked) [Compound 109, N-(3-(4-amino-3-(4-phenoxyphenyl)-1H-pyrazolo[3,4-d]pyrimidin-1-yl)cyclohexyl)-N-ethyl-1H-1,2,4-triazole-1-carboxamide]	≤ 1000 nM	≤ 1000 nM
COc1ccc(F)cc1C(=O)NCc1ccc(-c2nn(C3CCC(CN(C)C(=O)n4cncn4)C3)c3ncnc(N)c23)cc1 (centres unmarked) [Compound 111, N-((3-(4-amino-3-(4-((5-fluoro-2-methoxybenzamido)methyl)phenyl)-1H-pyrazolo[3,4-d]pyrimidin-1-yl)cyclopentyl)methyl)-N-methyl-1H-1,2,4-triazole-1-carboxamide]	≤ 1000 nM	≤ 1000 nM
COc1ccc(F)cc1C(=O)NCc1ccc(-c2nn(CC3CC(C)CCN3C(=O)n3cncn3)c3ncnc(N)c23)cc1 (centres unmarked) [Compound 112, N-(4-(4-amino-1-((4-methyl-1-(1H-1,2,4-triazole-1-carbonyl)piperidin-2-yl)methyl)-1H-pyrazolo[3,4-d]pyrimidin-3-yl)benzyl)-5-fluoro-2-methoxybenzamide]	> 1000 nM	> 1000 nM
CN(CC1CCNc2c(C(N)=O)c(-c3ccc(Oc4ccccc4)cc3)nn21)C(=O)n1cncn1 (centres unmarked) [Compound 113, 7-((N-methyl-1H-1,2,4-triazole-1-carboxamido)methyl)-2-(4-phenoxyphenyl)-4,5,6,7-tetrahydro-pyrazolo[1,5-a]pyrimidine-3-carboxamide]	> 1000 nM	> 1000 nM
CN(C(=O)n1cncn1)C1CC(C2CCNc3c(C(N)=O)c(-c4ccc(Oc5ccccc5)cc4)nn32)C1 (centres unmarked) [Compound 115, 7-(3-(N-methyl-1H-1,2,4-triazole-1-carboxamido)cyclobutyl)-2-(4-phenoxyphenyl)-4,5,6,7-tetrahydropyrazolo[1,5-a]pyrimidine-3-carboxamide]	≤ 1000 nM	≤ 1000 nM
COc1ccc(F)cc1C(=O)NCc1ccc(-c2nn(C3(CN(C)C(=O)n4cnc(C#N)n4)CC3)c3ncnc(N)c23)cc1 [Compound 117, N-((1-(4-amino-3-(4-((5-fluoro-2-methoxybenzamido)methyl)phenyl)-1H-pyrazolo[3,4-d]pyrimidin-1-yl)cyclopropyl)methyl)-3-cyano-N-methyl-1H-1,2,4-triazole-1-carboxamide]	≤ 1000 nM	> 1000 nM
COc1ccc(F)cc1C(=O)NCc1ccc(-c2nn(C3(CN(C)C(=O)n4cnnn4)CC3)c3ncnc(N)c23)cc1 [Compound 119, N-((1-(4-amino-3-(4-((5-fluoro-2-methoxybenzamido)methyl)phenyl)-1H-pyrazolo[3,4-d]pyrimidin-1-yl)cyclopropyl)methyl)-N-methyl-1H-tetrazole-1-carboxamide]	≤ 1000 nM	> 1000 nM
CCN(CC1CCNc2c(C(N)=O)c(-c3ccc(Oc4ccccc4)cc3)nn21)C(=O)n1cncn1 (centres unmarked) [Compound 120, 7-((N-ethyl-1H-1,2,4-triazole-1-carboxamido)methyl)-2-(4-phenoxyphenyl)-4,5,6,7-tetrahydro-pyrazolo[1,5-a]pyrimidine-3-carboxamide]	> 1000 nM	> 1000 nM
COc1ccc(F)cc1C(=O)NCc1ccc(-c2nn(C[C@@H]3CC[C@H]3N(C)C(=O)n3cncn3)c(N)c2C(N)=O)cc1 [Compound 121, N-((1R,2S)-2-((5-amino-4-carbamoyl-3-(4-((5-fluoro-2-methoxybenzamido)methyl)phenyl)-1H-pyrazol-1-yl)methyl)cyclobutyl)-N-methyl-1H-1,2,4-triazole-1-carboxamide]	≤ 1000 nM	≤ 1000 nM
COc1ccc(F)cc1C(=O)NCc1ccc(-c2nn(C3CCCN(C(=O)n4cncn4)C3)c(N)c2C(N)=O)cc1 (centres unmarked) [Compound 124, 1-(1-(1H-1,2,4-triazole-1-carbonyl)piperidin-3-yl)-5-amino-3-(4-((5-fluoro-2-methoxybenzamido)methyl)phenyl)-1H-pyrazole-4-carboxamide]	≤ 1000 nM	≤ 1000 nM
COc1ccc(F)cc1C(=O)NCc1ccc(-c2nn(C[C@@H](C)N(C)C(=O)n3cncn3)c3ncnc(N)c23)cc1 [Compound 125, (R)-N-(1-(4-amino-3-(4-((5-fluoro-2-methoxybenzamido)methyl)phenyl)-1H-pyrazolo[3,4-d]pyrimidin-1-yl)propan-2-yl)-N-methyl-1H-1,2,4-triazole-1-carboxamide]	≤ 1000 nM	≤ 1000 nM
COc1ccc(F)cc1C(=O)NCc1ccc(-c2nn(CC3CCCCC3N(C)C(=O)n3cncn3)c3ncnc(N)c23)cc1 (centres unmarked) [Compound 126, N-(2-((4-amino-3-(4-((5-fluoro-2-methoxybenzamido)methyl)phenyl)-1H-pyrazolo[3,4-d]pyrimidin-1-yl)methyl)cyclohexyl)-N-methyl-1H-1,2,4-triazole-1-carboxamide]	≤ 1000 nM	≤ 1000 nM
COc1ccc(F)cc1C(=O)NCc1ccc(-c2nn(C(CC3CC3)CN(C)C(=O)n3cncn3)c3ncnc(N)c23)cc1 (centres unmarked) [Compound 127, N-(4-(4-amino-3-(4-((5-fluoro-2-methoxybenzamido)methyl)phenyl)-1H-pyrazolo[3,4-d]pyrimidin-1-yl)-3-cyclopropylpropyl)-N-methyl-1H-1,2,4-triazole-1-carboxamide]	> 1000 nM	> 1000 nM
Cc1[nH]c2c(C(N)=O)cc(F)c(N3CCC(N(C)C(=O)n4cncn4)C3)c2c1C (centres unmarked) [Compound 128, 5-fluoro-2,3-dimethyl-4-(3-(N-methyl-1H-1,2,4-triazole-1-carboxamido)pyrrolidin-1-yl)-1H-indole-7-carboxamide]	≤ 1000 nM	≤ 1000 nM
COc1ccc(F)cc1C(=O)NCc1ccc(-c2nn(C(C)CC3CCCCN3C(=O)n3cncn3)c3ncnc(N)c23)cc1 (centres unmarked) [Compound 129, N-(4-(1-(1-(1-(1H-1,2,4-triazole-1-carbonyl)piperidin-2-yl)propan-2-yl)-4-amino-1H-pyrazolo[3,4-d]pyrimidin-3-yl)benzyl)-5-fluoro-2-methoxybenzamide]	> 1000 nM	> 1000 nM
COc1ccc(F)cc1C(=O)NCc1ccc(-c2nn(C[C@@H]3CCCC[C@H]3CN(C)C(=O)n3cncn3)c3ncnc(N)c23)cc1 [Compound 130, N-(((1R,2R)-2-((4-amino-3-(4-((5-fluoro-2-methoxybenzamido)methyl)phenyl)-1H-pyrazolo [3,4-d]pyrimidin-1-yl)methyl)cyclohexyl)methyl)-N-methyl-1H-1,2,4-triazole-1-carboxamide]	≤ 1000 nM	≤ 1000 nM
